These results are taken from patent US20240239786A1, “COMPOSITIONS AND METHODS FOR THE TREATMENT AND PREVENTION OF CANCER” (Yale University, priority 2021, published 2024).

The subject of one assay is DSB end resection. In words: Western blot of DSB end resection with etoposide in PEO4 cells. The assay is classed as cell-based. The settings on record: for Chk1 phosphorylation with/without etoposide: 5 μM etoposide 4 hr; for RPA32 phosphorylation, drug alone: 30 μM DB4, 1 μM triapine or 5 μM etoposide; for etoposide-induced RPA32 phosphorylation: pre-treated 1 hr, then 5 μM etoposide 4 hr. The method, then:
PEO1 cells were treated with 30 μM DB4 or 1 μM triapine for indicated times, pulsed with EdU for 1 hr and subsequently assayed for DNA synthesis inhibition as described in FIG. 2B. The bivariate plots of Alexa Fluor 488 and PE-Cy5 were gated to determine % S phase cells. […] PEO4 cells were treated with 30 μM DB4 or 1 μM triapine for indicated times, pulsed with EdU for 1 hr and subsequently assayed for DNA synthesis inhibition as described in FIG. 2B. The bivariate plots of Alexa Fluor 488 and PE-Cy5 were gated to determine % S phase cells. […] The bivariate plots of Alexa Fluor 488 and PE-Cy5 shown in FIG. 6A and FIG. 6B were gated to determine % cells in G1, S, and G2/M phases. […] PEO4 cells were treated with 30 μM DB4 or 1 μM triapine for various time periods and subjected to western blot analysis for the levels of cyclin A2, p-CDK1/2, p-H1, p-Chk1, and HSC70. The HSC70 protein level was used as a loading control. Cropped gel images of protein bands are presented. Cyclin A2, p-CDK1/2, and p-H1 bands were from re-probing the same blot. p-Chk1 and HSC70 bands were from re-probing the same duplicated blot. […] The CDK2 activity is expressed by the percentage of the p-HI levels relative to that of the 0 hr control is shown. […] Protein was analyzed by western blotting for p-Chk1, p-ATR, p-RPA32, γH2AX, and HSC70. Cropped gel images of protein bands are presented. All protein bands were from re-probing the same blot. DSB end resection is assessed by the level of p-RPA32.
To investigate the effects of DB4 on DSB end resection, the level of RPA32 phosphorylation, indicative of CDK2-dependent DSB end resection, was determined.
The methodology was described previously (Lin Z P et al., 2014, Molecular Cancer Res, 12:381-393; Ratner E S et al., 2016, Br J Cancer, 114:777-786). The anti-HSC70 antibody was purchased from Santa Cruz (Santa Cruz, CA). Anti-cyclin A2, anti-phospho-ATR (Thr-1981), anti-phospho-Chk1 (Ser-345), anti-phospho-CDK1/2 (Tyr-15), and anti-Y-H2AX (Ser-139) antibodies were from Cell Signaling (Danvers, MA). Anti-phospho-RPA32 (S4/S8) and anti-BRCA2 antibodies were from Bethyl Laboratories (Montgomery, TX). Anti-phospho-histone H1 antibody was from Millipore-Sigma (Burlington, MA). To avoid the cross-reaction of secondary antibodies with previously probed primary antibodies, blots were stripped and re-probed with next primary antibodies raised in a different species in an alternate fashion. All images were acquired and processed using the G: BOX gel documentation system and the GeneSnap software (Syngene, Frederick, MD). Brightness and contrast of images were applied equally across the entire gel/blot image and to controls. Images of protein bands were cropped and only brightness-adjusted using the PowerPoint software (Microsoft, Redmond, WA). Quantification of the protein band intensity was performed using the ImageJ software (NIH, Bethesda, MD).

In the next assay the test system is SKOV3 xenografts. In words: Subcutaneous growth of SKOV3 xenografts. The settings on record: i.p., 4 weeks; olaparib 50 mg/kg qd, DB4 10 mg/kg q2d. The assay is classed as in vivo, NCG mice. The method, then:
SCID-Beige mice implanted ip with PEO4ip cells were treated daily (qd) with DB4 (10 mg/kg), olaparib (50 mg/kg), and the DB4-olaparib combination for 4 weeks. Kaplan Meier analysis was performed to determine the survival time of mice following treatments. Statistical significance was determined by the Mantel-Cox test comparing the control with each treatment group (N=4-5). […] DB4 given every two days (q2d) in the DB4-olaparib combination for 4 or 6 weeks (n=4-5). […] NOD CRISPR Prkdc Il2r Gamma (NCG) mice implanted sc with SKOV3 cells were treated as described in FIG. 10C for 4 weeks during which the tumor size was measured. Statistical significance was determined by the Wilcoxon matched-pairs signed test comparing the control with each treatment group and comparing between treatment groups. […]
The efficacy of the combination of DB4 and olaparib to treat SKOV3 tumor xenografts, as determined by the tumor size, was ascertained in a subcutaneous (s.c.) mouse model (Ratner E S et al., 2016, Br J Cancer, 114:777-786; Lin Z P et al., 2018, PLOS One, 13:e0207399). […]
The progression of PEO4ip tumor xenografts in mice was evaluated by measuring the size of the circumference at the lower one-third of the abdominal area with the mouse head positioned upward. […] The growth of SKOV3 tumor xenografts was evaluated by the size of s.c. tumor using a digital caliper. […]

`C=CCn1c(SCc2cccc(Cl)c2)nnc1C1CCN(Cc2nc3ccccc3s2)CC1` [DB4, 2-[(4-{4-allyl-5-[(3-chlorobenzyl)thio]-4H-1,2,4-triazol-3-yl}-1-piperidinyl)methyl]-1,3-benzothiazole]: in the assay with DSB end resection, the ATR phosphorylation result is reported as “weakly induce ATR phosphorylation”; the “Chk1 phosphorylation with/without etoposide” value was “only synergized with etoposide to induce Chk1 phosphorylation”; the “RPA32 phosphorylation, drug alone” value is given as “no effect on basal RPA32 phosphorylation”; the “etoposide-induced RPA32 phosphorylation” value was “augmented etoposide-induced RPA32 phosphorylation”. In addition, the “inhibition of subcutaneous growth of SKOV3 xenografts (tumor size)” value in the assay on SKOV3 xenografts is reported as “moderately but significantly inhibited”.
For `O=C(c1cc(Cc2n[nH]c(=O)c3ccccc23)ccc1F)N1CCN(C(=O)C2CC2)CC1` [olaparib, reference compound], the “inhibition of subcutaneous growth of SKOV3 xenografts (tumor size)” value in the assay with SKOV3 xenografts is “moderately but significantly inhibited”.
`NC(=S)NN=Cc1ncccc1N` [triapine, 3-aminopyridine-2-carboxaldehyde-thiosemicarbazone, reference compound]: in the assay with DSB end resection, the ATR phosphorylation result was “induced ATR and Chk1 phosphorylation independently of etoposide treatment”; the “Chk1 phosphorylation with/without etoposide” value is “induced ATR and Chk1 phosphorylation independently of etoposide treatment”; the “RPA32 phosphorylation, drug alone” value is recorded as “induced a minor RPA32 phosphorylation”; the “etoposide-induced RPA32 phosphorylation” value is given as “blocked phosphorylation of RPA32, induced by etoposide”.
